Legend:
Assay in all cases: Test A pre-/postemergence herbicide test
[1] = tested on: barnyardgrass; type: in vivo, Echinochloa crus-galli; conditions: 1000 g ai/ha, 0 to 100 scale (0 no effect, 100 complete control)
Outline: (§1)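 Scoring was visual, relative to untreated controls, on a 0–100 scale after about 10 greenhouse days. Preemergence treatment used a directed soil spray over seeded loam/sand; postemergence treatment targeted one- to two-leaf plants of 2–10 cm.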

[2] = tested on: crabgrass, large; type: in vivo, Digitaria sanguinalis; conditions: 1000 g ai/ha
Outline: as §1

[3] = tested on: giant foxtail; type: in vivo, Setaria faberii; conditions: 1000 g ai/ha
Outline: as §1

[4] = tested on: morningglory; type: in vivo, Ipomoea spp.; conditions: 1000 g ai/ha
Excerpt: (§2) Seeds of plant species selected from bamyardgrass (Echinochloa crus-galli), kochia (Kochia scoparia), ragweed (common ragweed, Ambrosia elatior), ryegrass, Italian (Italian ryegrass, Lolium multiflorum), crabgrass, large (large crabgrass Digitaria sanguinalis), giant foxtail (Setaria faberii), morningglory (Ipomoea spp.), pigweed (Amaranthus retroflexus), velvetleaf (Abutilon theophrasti), wheat (Triticum aestivum), and corn (Zea mays) were planted into a blend of loam soil and sand and treated preemergence with a directed soil spray using test chemicals formulated in a non-phytotoxic solvent mixture which included a surfactant. At the same time, plants selected from these crop and weed species and also blackgrass (Alopecurus myosuroides), and galium (catchweed bedstraw, Galium aparine) were planted in pots containing the same blend of loam soil and sand and treated with postemergence applications of test chemicals formulated in the same manner. Plants ranged in height from 2 to 10 cm and were in the one- to two-leaf stage for the postemergence treatment. Treated plants and untreated controls were maintained in a greenhouse for approximately 10 days, after which time all treated plants were compared to untreated controls and visually evaluated for injury. Plant response ratings, summarized in Table A, are based on a 0 to 100 scale where 0 is no effect and 100 is complete control. A dash (-) response means no test result.

[5] = tested on: pigweed; type: in vivo, Amaranthus retroflexus; conditions: 1000 g ai/ha
Excerpt: as §2

[6] = tested on: velvetleaf; type: in vivo, Abutilon theophrasti; conditions: 1000 g ai/ha
Excerpt: as §2

[7] = tested on: wheat; type: in vivo, Triticum aestivum; conditions: 1000 g ai/ha
Outline: as §1

[8] = tested on: corn; type: in vivo, Zea mays; conditions: 1000 g ai/ha
Outline: as §1

[9] = Postemergence, 0 to 100 scale (0 no effect, 100 complete control)

Row | SMILES | Plant response rating, Barnyardgrass ([1]; Postemergence) | Plant response rating, Barnyardgrass ([1]; preemergence) | Plant response rating, Crabgrass, Large [2, 9] | Plant response rating, Crabgrass, Large ([2]; preemergence, 0 to 100 scale) | Plant response rating, Foxtail, Giant [3, 9] | Plant response rating, Foxtail, Giant ([3]; preemergence, 0 to 100 scale) | Plant response rating, Morningglory [4, 9] | Plant response rating, Morningglory ([4]; preemergence, 0 to 100 scale) | Plant response rating, Pigweed [5, 9] | Plant response rating, Pigweed ([5]; preemergence, 0 to 100 scale) | Plant response rating, Velvetleaf [6, 9] | Plant response rating, Velvetleaf ([6]; preemergence, 0 to 100 scale) | Plant response rating, Wheat [7, 9] | Plant response rating, Wheat ([7]; preemergence, 0 to 100 scale) | Plant response rating, Corn [8, 9] | Plant response rating, Corn ([8]; preemergence, 0 to 100 scale)
1 | Cn1ccnc1C1CNC(=O)C1C(=O)Nc1ccccc1F (racemic) [Compound 255] | 0 | 60 | 0 | 90 | 0 | 70 | 0 | 0 | 0 | 0 | 0 | 0 | 0 | 0 | 0 | 0
2 | Cn1ccc(C2CNC(=O)C2C(=O)Nc2ccccc2C(F)(F)F)n1 (racemic) [Compound 191] | 0 | 0 | 0 | 0 | 0 | 0 | 0 | 0 | 0 | 0 | 0 | 0 | 0 | 0 | 0 | 0
3 | Cn1cc(C2CNC(=O)C2C(=O)Nc2ccccc2F)cn1 (racemic) [Compound 254] | 0 | 0 | 0 | 70 | 0 | 40 | 0 | 0 | 0 | 0 | 0 | 0 | 0 | 0 | 0 | 0

Reference: patent US10294202B2, “Pyrrolidinones as herbicides” (FMC Corporation, priority 2013, dated 2019)
